Laboratory results as given in paper PMC9519446, “Discovery of an Orally Active Benzoxaborole Prodrug Effective in the Treatment of Chagas Disease in Non-human Primates” (Nature microbiology, 2022).
Several values for one entry are separate records, joined by “and”; a condition that tells them apart may be missing. Equal entries are not always repeated.

Assay: NHP health screening: serum chemistry
Assay type: in vivo, rhesus macaques (Macaca mulatta)
[1] = Mid-dosing bleed, treated animals, individual values
[2] = Post-dosing bleed, treated animals, individual values
[3] = Post-dosing bleed, Mean of treated F animals
[4] = Post-dosing bleed, individual treated animals
[5] = drug-treatment phase, returned to pre-study values by the final blood draw

Protocol: Under light-anesthesia/sedation, peripheral blood samples were collected from each animal prior to treatment and at 7 time points following. Blood analysis (CBC and serum chemistry assays) and physical exams to evaluate the health of the study animals were performed on each animal prior to the beginning of the study and also at three time points during the treatment protocol (see Supplementary data).

With Cc1c(C(=O)N[C@H](C(=O)OCC2CCOCC2)C(C)C)ccc2c1B(O)OC2 [AN15368] the Glob [1] was 3.3 G/Dl and 3.1 G/Dl and 2.8 G/Dl and 3.4 G/Dl and 2.9 G/Dl and 4.1 G/Dl and 3.8 G/Dl and 2.7 G/Dl and 2.5 G/Dl and 3 G/Dl and 3.5 G/Dl and 3.2 G/Dl, the Gluc [1] was 69 Mg/Dl and 72 Mg/Dl and 58 Mg/Dl and 65 Mg/Dl and 66 Mg/Dl and 56 Mg/Dl and 73 Mg/Dl and 55 Mg/Dl and 63 Mg/Dl and 70 Mg/Dl and 48 Mg/Dl and 54 Mg/Dl and 79 Mg/Dl and 68 Mg/Dl and 53 Mg/Dl and the K [1] was 3.9 Meq/L and 3.6 Meq/L and 3.3 Meq/L and 3.4 Meq/L and 3.5 Meq/L and 4.3 Meq/L and 3.8 Meq/L and 3.7 Meq/L. The Ldh [1] was 473 Iu/L and 139 Iu/L and 164 Iu/L and 148 Iu/L and 134 Iu/L and 214 Iu/L and 259 Iu/L and 376 Iu/L and 250 Iu/L and 266 Iu/L and 183 Iu/L and 238 Iu/L and 449 Iu/L and 154 Iu/L and 213 Iu/L and 475 Iu/L and 156 Iu/L and 198 Iu/L and 375 Iu/L, the Na [1] was 148 Meq/L and 150 Meq/L and 147 Meq/L and 144 Meq/L and 149 Meq/L and 146 Meq/L and 152 Meq/L and the Osmo [1] was 284 Mosm/Kg and 289 Mosm/Kg and 281 Mosm/Kg and 283 Mosm/Kg and 288 Mosm/Kg and 276 Mosm/Kg and 286 Mosm/Kg and 280 Mosm/Kg and 287 Mosm/Kg and 293 Mosm/Kg and 285 Mosm/Kg and 282 Mosm/Kg. For the same molecule, the Phos [1] was 3.3 Mg/Dl and 3.8 Mg/Dl and 2 Mg/Dl and 2.4 Mg/Dl and 1 Mg/Dl and 2.2 Mg/Dl and 3.9 Mg/Dl and 2.5 Mg/Dl and 3.6 Mg/Dl and 3.1 Mg/Dl and 1.8 Mg/Dl and 4.8 Mg/Dl and 3.2 Mg/Dl, the Tbil [1] was 0.18 Mg/Dl and 0.17 Mg/Dl and 0.14 Mg/Dl and 0.2 Mg/Dl and 0.16 Mg/Dl and 0.19 Mg/Dl and 0.15 Mg/Dl and 0.13 Mg/Dl and the Tco2 [1] was 26 Meq/L and 28 Meq/L and 27 Meq/L and 25 Meq/L and 30 Meq/L and 24 Meq/L. For the same molecule, the Tibc [1] was 376 µg/dL and 358 µg/dL and 410 µg/dL and 408 µg/dL and 348 µg/dL and 343 µg/dL and 359 µg/dL and 373 µg/dL and 383 µg/dL and 429 µg/dL and 377 µg/dL and 326 µg/dL and 340 µg/dL and 412 µg/dL and 337 µg/dL and 324 µg/dL and 325 µg/dL, the Tp [1] was 7.2 G/Dl and 6.7 G/Dl and 7.3 G/Dl and 7.5 G/Dl and 6.4 G/Dl and 7 G/Dl and 6.9 G/Dl and 6.5 G/Dl and 6.8 G/Dl and 6.6 G/Dl and the Trig [1] was 99 Mg/Dl and 148 Mg/Dl and 81 Mg/Dl and 85 Mg/Dl and 108 Mg/Dl and 72 Mg/Dl and 32 Mg/Dl and 141 Mg/Dl and 65 Mg/Dl and 82 Mg/Dl and 79 Mg/Dl and 102 Mg/Dl and 29 Mg/Dl and 76 Mg/Dl and 70 Mg/Dl and 62 Mg/Dl and 66 Mg/Dl and 95 Mg/Dl. For the same molecule, the Agap [2] was 16 Meq/L and 14 Meq/L, the Alb [2] was 3.9 G/Dl and 3.7 G/Dl and the Alp [2] was 111 Iu/L and 100 Iu/L and 77 Iu/L. The Alt [2] was 52 Iu/L and 63 Iu/L and 59 Iu/L, the Ast [2] was 26 Iu/L and 34 Iu/L and 32 Iu/L and the Bun [2] was 17 Mg/Dl and 14 Mg/Dl. The Ca [2] was 9.5 Mg/Dl and 8.9 Mg/Dl, the Chol [2] was 187 mg/dL and 193 mg/dL and 141 mg/dL and the Ck [2] was 260 Iu/L and 337 Iu/L and 328 Iu/L. For the same molecule, the Cl [2] was 107 Meq/L and 111 Meq/L, the Crea [2] was 0.58 Mg/Dl and 0.78 Mg/Dl and 0.68 Mg/Dl and the Fe [2] was 135 µg/dL and 99 µg/dL and 93 µg/dL. For the same molecule, the Ggt [2] was 41 Iu/L and 54 Iu/L and 38 Iu/L, the Glob [2] was 3.3 G/Dl and 3.1 G/Dl and 2.9 G/Dl and the Gluc [2] was 63 Mg/Dl and 84 Mg/Dl and 51 Mg/Dl. For the same molecule, the K [2] was 3.5 Meq/L and 3.4 Meq/L, the Ldh [2] was 217 Iu/L and 509 Iu/L and 322 Iu/L and the Na [2] was 147 Meq/L and 146 Meq/L and 148 Meq/L. The Osmo [2] was 283 Mosm/Kg and 281 Mosm/Kg and 284 Mosm/Kg, the Phos [2] was 4.6 Mg/Dl and 3.2 Mg/Dl and 2.1 Mg/Dl and the Tbil [2] was 0.19 Mg/Dl and 0.14 Mg/Dl and 0.12 Mg/Dl. The Tco2 [2] was 28 Meq/L and 26 Meq/L, the Tibc [2] was 357 µg/dL and 333 µg/dL and 388 µg/dL and the Tp [2] was 7.2 G/Dl and 6.8 G/Dl and 6.6 G/Dl. The Trig [2] was 64 Mg/Dl and 152 Mg/Dl and 111 Mg/Dl, the Agap [3] was 15.0556 Meq/L and the Alb [3] was 3.833 G/Dl. The Alp [3] was 103.5 Iu/L, the Alt [3] was 52.5556 Iu/L and the Ast [3] was 30.8889 Iu/L. For the same molecule, the Bun [3] was 14.9444 Mg/Dl, the Ca [3] was 9.256 Mg/Dl and the Chol [3] was 143.944 mg/dL. For the same molecule, the Ck [3] was 504.722 Iu/L, the Cl [3] was 109.722 Meq/L and the Crea [3] was 0.695 Mg/Dl. The Fe [3] was 115.333 µg/dL, the Ggt [3] was 47 Iu/L and the Glob [3] was 3.178 G/Dl. It also gave a Gluc [3] of 64.6667 Mg/Dl, a K [3] of 3.617 Meq/L and a Ldh [3] of 322.722 Iu/L. It also gave a Na [3] of 147.667 Meq/L, an Osmo [3] of 283.5 Mosm/Kg and a Phos [3] of 3.244 Mg/Dl. The Tbil [3] was 0.1383 Mg/Dl, the Tco2 [3] was 26.6111 Meq/L and the Tibc [3] was 363.444 µg/dL. The Tp [3] was 7.006 G/Dl, the Trig [3] was 77.7222 Mg/Dl and the Agap [4] was 14 Meq/L and 13 Meq/L and 17 Meq/L and 15 Meq/L and 19 Meq/L. For the same molecule, the Alb [4] was 3.7 G/Dl and 3.8 G/Dl and 3.6 G/Dl and 3.3 G/Dl and 3.5 G/Dl and 4.1 G/Dl and 4.2 G/Dl and 4 G/Dl and 3.4 G/Dl and 3.9 G/Dl, the Alp [4] was 195 Iu/L and 100 Iu/L and 87 Iu/L and 122 Iu/L and 132 Iu/L and 143 Iu/L and 66 Iu/L and 83 Iu/L and 80 Iu/L and 105 Iu/L and 138 Iu/L and 102 Iu/L and 69 Iu/L and 79 Iu/L and the Alt [4] was 97 Iu/L and 39 Iu/L and 41 Iu/L and 87 Iu/L and 35 Iu/L and 91 Iu/L and 28 Iu/L and 31 Iu/L and 48 Iu/L and 71 Iu/L and 43 Iu/L and 46 Iu/L and 64 Iu/L. For the same molecule, the Ast [4] was 40 Iu/L and 30 Iu/L and 31 Iu/L and 28 Iu/L and 27 Iu/L and 20 Iu/L and 42 Iu/L and 18 Iu/L and 26 Iu/L and 32 Iu/L and 45 Iu/L and 35 Iu/L, the Bun [4] was 12 Mg/Dl and 16 Mg/Dl and 17 Mg/Dl and 10 Mg/Dl and 18 Mg/Dl and 15 Mg/Dl and 13 Mg/Dl and 20 Mg/Dl and 11 Mg/Dl and 14 Mg/Dl and the Ca [4] was 9.1 Mg/Dl and 8.8 Mg/Dl and 9 Mg/Dl and 9.3 Mg/Dl and 9.8 Mg/Dl and 9.2 Mg/Dl and 9.6 Mg/Dl and 9.4 Mg/Dl and 9.5 Mg/Dl and 8.7 Mg/Dl. For the same molecule, the Chol [4] was 121 mg/dL and 130 mg/dL and 133 mg/dL and 163 mg/dL and 147 mg/dL and 123 mg/dL and 150 mg/dL and 157 mg/dL and 141 mg/dL and 125 mg/dL and 129 mg/dL and 155 mg/dL and 160 mg/dL and 115 mg/dL and 127 mg/dL, the Ck [4] was 628 Iu/L and 657 Iu/L and 306 Iu/L and 255 Iu/L and 667 Iu/L and 292 Iu/L and 656 Iu/L and 625 Iu/L and 240 Iu/L and 479 Iu/L and 309 Iu/L and 783 Iu/L and 341 Iu/L and 1583 Iu/L and 339 Iu/L and 291 Iu/L and the Cl [4] was 109 Meq/L and 111 Meq/L and 108 Meq/L and 113 Meq/L and 110 Meq/L and 107 Meq/L. For the same molecule, the Crea [4] was 0.68 Mg/Dl and 0.84 Mg/Dl and 0.9 Mg/Dl and 0.6 Mg/Dl and 0.64 Mg/Dl and 0.7 Mg/Dl and 0.75 Mg/Dl and 0.83 Mg/Dl and 0.62 Mg/Dl and 0.65 Mg/Dl and 0.78 Mg/Dl and 0.66 Mg/Dl and 0.53 Mg/Dl, the Fe [4] was 123 µg/dL and 100 µg/dL and 104 µg/dL and 102 µg/dL and 72 µg/dL and 129 µg/dL and 105 µg/dL and 154 µg/dL and 174 µg/dL and 67 µg/dL and 109 µg/dL and 144 µg/dL and 159 µg/dL and 136 µg/dL and the Ggt [4] was 47 Iu/L and 54 Iu/L and 63 Iu/L and 53 Iu/L and 51 Iu/L and 30 Iu/L and 52 Iu/L and 29 Iu/L and 39 Iu/L and 31 Iu/L and 89 Iu/L and 35 Iu/L and 42 Iu/L. For the same molecule, the Glob [4] was 3.3 G/Dl and 2.9 G/Dl and 4 G/Dl and 3.5 G/Dl and 3 G/Dl and 3.2 G/Dl and 2.7 G/Dl and 2.8 G/Dl and 3.4 G/Dl, the Gluc [4] was 67 Mg/Dl and 57 Mg/Dl and 69 Mg/Dl and 65 Mg/Dl and 74 Mg/Dl and 62 Mg/Dl and 70 Mg/Dl and 48 Mg/Dl and 50 Mg/Dl and 58 Mg/Dl and 66 Mg/Dl and 75 Mg/Dl and 86 Mg/Dl and 44 Mg/Dl and 51 Mg/Dl and the K [4] was 3.6 Meq/L and 3.5 Meq/L and 3.7 Meq/L and 4.4 Meq/L and 3.4 Meq/L and 3.8 Meq/L. For the same molecule, the Ldh [4] was 356 Iu/L and 197 Iu/L and 294 Iu/L and 209 Iu/L and 260 Iu/L and 107 Iu/L and 225 Iu/L and 392 Iu/L and 204 Iu/L and 300 Iu/L and 485 Iu/L and 796 Iu/L and 178 Iu/L and 365 Iu/L and 393 Iu/L and 524 Iu/L, the Na [4] was 147 Meq/L and 150 Meq/L and 148 Meq/L and 151 Meq/L and 146 Meq/L and 149 Meq/L and 145 Meq/L and the Osmo [4] was 281 Mosm/Kg and 288 Mosm/Kg and 283 Mosm/Kg and 282 Mosm/Kg and 284 Mosm/Kg and 291 Mosm/Kg and 280 Mosm/Kg and 286 Mosm/Kg and 279 Mosm/Kg and 287 Mosm/Kg. The Phos [4] was 2.4 Mg/Dl and 1.8 Mg/Dl and 1.9 Mg/Dl and 2.7 Mg/Dl and 3.6 Mg/Dl and 3.8 Mg/Dl and 4.7 Mg/Dl and 2.9 Mg/Dl and 3.7 Mg/Dl and 5.2 Mg/Dl and 2.1 Mg/Dl and 4.6 Mg/Dl and 4.3 Mg/Dl and 4 Mg/Dl, the Tbil [4] was 0.15 Mg/Dl and 0.13 Mg/Dl and 0.1 Mg/Dl and 0.14 Mg/Dl and 0.17 Mg/Dl and 0.12 Mg/Dl and 0.11 Mg/Dl and 0.16 Mg/Dl and the Tco2 [4] was 28 Meq/L and 30 Meq/L and 26 Meq/L and 25 Meq/L and 24 Meq/L and 29 Meq/L and 23 Meq/L. The Tibc [4] was 379 µg/dL and 363 µg/dL and 332 µg/dL and 367 µg/dL and 386 µg/dL and 356 µg/dL and 359 µg/dL and 419 µg/dL and 437 µg/dL and 354 µg/dL and 325 µg/dL and 353 µg/dL and 316 µg/dL and 309 µg/dL, the Tp [4] was 7 G/Dl and 6.7 G/Dl and 7.6 G/Dl and 6.8 G/Dl and 7.5 G/Dl and 7.1 G/Dl and 6.9 G/Dl and 7.2 G/Dl and the Trig [4] was 78 Mg/Dl and 58 Mg/Dl and 56 Mg/Dl and 74 Mg/Dl and 63 Mg/Dl and 59 Mg/Dl and 42 Mg/Dl and 61 Mg/Dl and 158 Mg/Dl and 51 Mg/Dl and 44 Mg/Dl and 113 Mg/Dl and 93 Mg/Dl and 100 Mg/Dl. The “alanine aminotransferase (ALT), mean value” [5] was “mildly elevated” and the “alkaline phosphatase (ALP), mean value” [5] was “mildly elevated”.
